Here are results for three compounds from patent US10300151B2, “Methods and systems for noninvasive fluorescence-based functional imaging of kidneys” (Board of Regents, The University of Texas System, priority 2015, dated 2019).

Entries after “also recorded” stand apart in the source; their conditions may differ.

Data set [1] concerns kidneys of Balb/c mice. Kind of data set: Noninvasive whole-body fluorescence kidney imaging of intact mice after i.v. injection of fluorophore. The class given is in vivo, mouse. Particulars: for excretion route: fluorescence from bladder at 65 min / intestines after 10 min p.i.; for skin clearance half-life: observed during 60 min p.i.; for fraction of first phase of skin intensity increase / fraction of second phase of skin intensity increase / skin fluorescence intensity increase half-life, first phase / skin fluorescence intensity increase half-life, second phase: two-phase exponential growth, FIG. 10; for duration of kidney contrast/visualisation in noninvasive imaging: after i.v. injection. The protocol: Invasive and noninvasive imaging of normal mice, UUO mice and sham mice were performed using the following protocol. The protocol for invasive and noninvasive imaging differed in only in that for invasive imaging, the mouse's kidneys are exposed via removal of the mouse's back skin.
Prior to imaging, hair-removed Balb/c mice were anesthetized using 3% isoflurane. A catheter filled with PBS was inserted into each mouse's tail vein. The mouse, along with its tail vein catheter, was placed in supine position on the stage of fluorescence imaging system, with the mouse's back facing the excitation light and charge-coupled device (CCD) camera.
Fluorescence imaging of the each of mice proceeded as follows. Bright-field and fluorescence images of the each mouse was taken before injection with fluorophores. When its breathing rate decreased to 10-14 times per 15 s, the mouse was injected with 200 μL of a fluorophore solution. The fluorophore solutions used were PBS solutions of either an organic dye (Cy3, Cy7, or IRDye 800CW) or GS-AuNPs. The concentrations of Cy3, Cy7 and IRDye 800CW were 100, 10, and 10 μM, respectively, and these solutions were filtered through a 0.02 μm filter before injection. The solution of NIR-emitting GS-AuNPs contained 10 mg/mL gold atom as determined by inductively coupled plasma mass spectrometry (ICP-MS). Once the designated fluorophore solution was injected, whole body fluorescence images of each mouse were collected consecutively until 60 minutes post-injection. To ensure reproducible results, each mouse's anesthesia status was maintained at constant level before injection of fluorophores. Unlike clinical renographic procedures, no diuretic agents were used, and the animals were not hydrated prior to fluorescence imaging.
The parameters for acquiring the fluorescence images were shown as follows: Cy3, excitation at 550/10 nm, emission at 600/20 nm, exposure time of 2 s, no binning (FIGS. 4, 6, and 7); Cy7, excitation of 710/10 nm, emission of 790/20 nm, exposure time of 5 s, 2×2 binning (FIGS. 5, 8, and 9); IRDye 800CW, excitation of 710/10 nm, emission of 790/20 nm, 2×2 binning, exposure time of 5 s (FIGS. 21 and 55); GS-AuNPs, excitation of 710/10 nm, emission of 830/20 nm; exposure time of 30 s, 2×2 binning (FIGS. 24, 36, and 54).
Regions of interest (ROIs) designated “kidney areas” were defined around the left and right kidneys on the fluorescence image showing high kidney intensity. Four ROIs designated “surrounding tissue areas” were drawn in proximity to the each kidney; the mean values of these four ROIs were considered the “mean intensity of surrounding tissue area” for the respective kidney. The percentage of kidney contrast enhancement was calculated as follows:
[formula] For GS-AuNPs, the ROIs of “skin” were chosen from the back area close to the tail, so as to avoid the influence of bright kidneys. The time-dependent fluorescence intensity of skin (or kidneys) and percentage of kidney contrast enhancement (FIGS. 10-14, 22, 23, 25, 26, 37, 56, and 57). The curves were fitted with exponential functions to generate the kinetics of kidney contrast change or the kinetics of accumulation and clearance of the fluorophores in the skin and kidneys (FIGS. 10, 22, and 23). Deconvolution and parametric analysis of the kidney TFICs were performed using Origin 8 (FIGS. 27-35; Tables 1 and 2). Pathological Analysis

In data set [2] the test system is kidneys of Balb/c mice. The data set can be described thus: Invasive fluorescence kidney imaging of skin-removed mice after i.v. injection of fluorophore. Particulars: for time at which skin fluorescence intensity surpasses left and right kidney intensity: kidneys surgically exposed; for time of maximum skin fluorescence intensity: FIG. 26 (Cy7: FIG. 10); for peak skin fluorescence intensity as percentage of maximum kidney fluorescence intensity: kidney fluorescence from invasive imaging data, FIG. 26. The class given is in vivo, mouse. The procedure:
Invasive and noninvasive imaging of normal mice, UUO mice and sham mice were performed using the following protocol. The protocol for invasive and noninvasive imaging differed in only in that for invasive imaging, the mouse's kidneys are exposed via removal of the mouse's back skin. […] As shown in panel a, the kidneys are paired bean-shaped organs lying on either side of the vertebral column. The right kidney (RK) of a mouse is usually slightly higher than it left kidney (LK). Since the kidneys locate retroperitoneally against the dorsal body wall, LK (shown in panel b) and RK (shown in panel c) can be exposed once the back skin above the kidneys was removed. The interference of skin on kidney imaging can be avoided in such an invasive way. Prior to imaging, hair-removed Balb/c mice were anesthetized using 3% isoflurane. A catheter filled with PBS was inserted into each mouse's tail vein. The mouse, along with its tail vein catheter, was placed in supine position on the stage of fluorescence imaging system, with the mouse's back facing the excitation light and charge-coupled device (CCD) camera. Fluorescence imaging of the each of mice proceeded as follows. Bright-field and fluorescence images of the each mouse was taken before injection with fluorophores. When its breathing rate decreased to 10-14 times per 15 s, the mouse was injected with 200 μL of a fluorophore solution. The fluorophore solutions used were PBS solutions of either an organic dye (Cy3, Cy7, or IRDye 800CW) or GS-AuNPs. The concentrations of Cy3, Cy7 and IRDye 800CW were 100, 10, and 10 μM, respectively, and these solutions were filtered through a 0.02 μm filter before injection. The solution of NIR-emitting GS-AuNPs contained 10 mg/mL gold atom as determined by inductively coupled plasma mass spectrometry (ICP-MS). Once the designated fluorophore solution was injected, whole body fluorescence images of each mouse were collected consecutively until 60 minutes post-injection. To ensure reproducible results, each mouse's anesthesia status was maintained at constant level before injection of fluorophores. Unlike clinical renographic procedures, no diuretic agents were used, and the animals were not hydrated prior to fluorescence imaging. The parameters for acquiring the fluorescence images were shown as follows: Cy3, excitation at 550/10 nm, emission at 600/20 nm, exposure time of 2 s, no binning (FIGS. 4, 6, and 7); Cy7, excitation of 710/10 nm, emission of 790/20 nm, exposure time of 5 s, 2×2 binning (FIGS. 5, 8, and 9); IRDye 800CW, excitation of 710/10 nm, emission of 790/20 nm, 2×2 binning, exposure time of 5 s (FIGS. 21 and 55); GS-AuNPs, excitation of 710/10 nm, emission of 830/20 nm; exposure time of 30 s, 2×2 binning (FIGS. 24, 36, and 54). Regions of interest (ROIs) designated “kidney areas” were defined around the left and right kidneys on the fluorescence image showing high kidney intensity. Four ROIs designated “surrounding tissue areas” were drawn in proximity to the each kidney; the mean values of these four ROIs were considered the “mean intensity of surrounding tissue area” for the respective kidney. The percentage of kidney contrast enhancement was calculated as follows: [formula] For GS-AuNPs, the ROIs of “skin” were chosen from the back area close to the tail, so as to avoid the influence of bright kidneys. The time-dependent fluorescence intensity of skin (or kidneys) and percentage of kidney contrast enhancement (FIGS. 10-14, 22, 23, 25, 26, 37, 56, and 57). The curves were fitted with exponential functions to generate the kinetics of kidney contrast change or the kinetics of accumulation and clearance of the fluorophores in the skin and kidneys (FIGS. 10, 22, and 23). Deconvolution and parametric analysis of the kidney TFICs were performed using Origin 8 (FIGS. 27-35; Tables 1 and 2). Pathological Analysis

The test system of a further data set is kidneys of UUO mice. Kind of data set: Noninvasive fluorescence renography in unilateral ureter obstruction (UUO) and sham mice. The class given is in vivo, mouse. The text has this:
To obtain unilateral […] obstruction (UUO) mice, male Balb/c mice (6-8 weeks old, with about 20 g) were anesthetized with isoflurane. For each mouse, the left kidney was exposed an incision on the left flank, and the left ureter was obstructed completely near the renal pelvis using a nonabsorbable suture. For mice in the sham group, the left ureter was exposed using the same surgical procedure but ureter ligation was not performed. Female Balb/c mice (8-10 weeks old, weighing about 20 g) were used as normal (non-UUO) mice for other experiments, such as those shown in FIGS. 4-19. The hair on the Balb/c mice was removed using hair removal lotion at least 24 h before the imaging experiments.
Fluorescence imaging of the each of mice proceeded as follows. Bright-field and fluorescence images of the each mouse was taken before injection with fluorophores. […] The solution of NIR-emitting GS-AuNPs contained 10 mg/mL gold atom as determined by inductively coupled plasma mass spectrometry (ICP-MS). Once the designated fluorophore solution was injected, whole body fluorescence images of each mouse were collected consecutively until 60 minutes post-injection. […] Unlike clinical renographic procedures, no diuretic agents were used, and the animals were not hydrated prior to fluorescence imaging. […]

For data set [3] the following is noted: in mice, blood; cited from earlier work.
[4] abbreviates: 0.6 min p.i., noninvasive, N=3, mean±s.d.
Setting [5] is: 60 min p.i., noninvasive, N=3, mean±s.d.
Setting [6] is: noninvasive, single exponential decay.

Regarding `CCN1C(=CC=CC2=[N+](CCCCCC(=O)O)c3ccc(S(=O)(=O)O)cc3C2(C)C)C(C)(C)c2cc(S(=O)(=O)[O-])ccc21` [Cy3, disulfo-Cy3 carboxylic acid], in the data set with kidneys of Balb/c mice [1], the “excretion route” value is on record as “can be excreted into urine through renal clearance”, the skin clearance half-life is given as 56.5 min, the “fraction of first phase of skin intensity increase” value was 18.1% and the “fraction of second phase of skin intensity increase” value is 81.9%. In the data set with kidneys of Balb/c mice [1], the “skin fluorescence intensity increase half-life, first phase” value is given as 0.2 min and the “skin fluorescence intensity increase half-life, second phase” value was 2.8 min. For the same compound, the “contrast enhancement of noninvasively imaged mouse kidney” value in the data set with kidneys of Balb/c mice [1] (intact mouse, Ex/Em 550/600 nm) is recorded as “failed to enhance contrast”. In addition, the “time at which skin fluorescence intensity surpasses left and right kidney intensity” value in the data set on kidneys of Balb/c mice [2] (invasive imaging) turned out to be 1.5 min p.i.

On to `CC1(C)C(/C=C/C2=C(Oc3ccc(S(=O)(=O)O)cc3)C(=C/C=C3/N(CCCCS(=O)(=O)O)c4ccc(S(=O)(=O)[O-])cc4C3(C)C)/CCC2)=[N+](CCCCCC(=O)O)c2ccc(S(=O)(=O)O)cc21` [IRDye 800CW, IRDye 800CW carboxylate], for which, in the data set with kidneys of Balb/c mice [1] (setting [4]), the “percentage contrast enhancement of left kidney (LK)” value is recorded as 67.6±7.1% and the “percentage contrast enhancement of right kidney (RK)” value came out at 49.9±9.0%. Also, in the data set with kidneys of Balb/c mice [1] (setting [5]), the “percentage of contrast enhancement, LK” value is −4.7±0.8% and the “percentage of contrast enhancement, RK” value is recorded as −4.8±5.1%. In addition, in the data set with kidneys of Balb/c mice [1] (intact mouse), the “duration of kidney contrast/visualisation in noninvasive imaging” value is “less than 5 min”. The “time at which skin fluorescence intensity is halfway to saturation” value in the data set on kidneys of Balb/c mice [1] (noninvasive imaging, FIG. 22) was 4.1 min. For the same compound, in the data set on kidneys of Balb/c mice [1] (setting [6]), the “decay half-life of percentage contrast enhancement, LK” value came to 4.2 min and the “decay half-life of percentage contrast enhancement, RK” value was 4.5 min. Besides, in the data set with kidneys of Balb/c mice [2], the “time of maximum skin fluorescence intensity” value was determined as 25 min p.i and the “peak skin fluorescence intensity as percentage of maximum kidney fluorescence intensity” value was 75.5±9.3%. In the data set on kidneys of Balb/c mice [2] (invasive imaging, FIG. 23), the “clearance half-life from kidney, LK, first component” value is on record as 4.3 min; the “clearance half-life from kidney, LK, second component” value is on record as 28.0 min; the “clearance half-life from kidney, RK, first component” value is reported as 4.7 min; the “clearance half-life from kidney, RK, second component” value came to 18.9 min. Besides, in the data set with kidneys of Balb/c mice [2] (invasive imaging, FIG. 23), the “fraction of first clearance component, LK” value stood at 50.1%; the “fraction of first clearance component, RK” value turned out to be 46.0%; the “fraction of second clearance component, LK” value turned out to be 49.9%; the “fraction of second clearance component, RK” value is 54.0%. Also, in the data set on kidneys of UUO mice (LK, RK and skin, FIGS. 56-57), the “time-dependent intensity curves in sham vs UUO mice” value is “very similar profiles of time-dependent intensity curve in sham and UUO mice”. In the data set on kidneys of UUO mice (noninvasive imaging, UUO mouse), the “visibility of kidneys in UUO mouse” value was “both UUO LK and RK disappeared after 5 min p.i”. Besides, in data set [3], the “elimination half-life (t1/2β)” value is 58.8 ± 4.8 min.

In the case of `CCN1C(=CC=CC=CC=CC2=[N+](CCCCCC(=O)O)c3ccc(S(=O)(=O)O)cc3C2(C)C)C(C)(C)c2cc(S(=O)(=O)[O-])ccc21` [Cy7, disulfo-Cy7 carboxylic acid], in the data set with kidneys of Balb/c mice [1] (intact mouse), the “duration of kidney contrast/visualisation in noninvasive imaging” value is “less than 10 min”. Further, in the data set with kidneys of Balb/c mice [1], the “excretion route” value was “can be excreted into urine through renal clearance; also recorded: can also be excreted through a hepatic route”, the skin clearance half-life result is given as “No clearance of Cy7 from the skin was observed during 60 min p.i”, the “fraction of first phase of skin intensity increase” value is reported as 33.5% and the “fraction of second phase of skin intensity increase” value came to 66.5%. Besides, in the data set with kidneys of Balb/c mice [1], the “skin fluorescence intensity increase half-life, first phase” value was 1.5 min and the “skin fluorescence intensity increase half-life, second phase” value is on record as 7.4 min. In addition, in the data set with kidneys of Balb/c mice [2], the “time of maximum skin fluorescence intensity” value was 35 min p.i and the “peak skin fluorescence intensity as percentage of maximum kidney fluorescence intensity” value is 95.3%. For the same compound, in the data set with kidneys of Balb/c mice [2] (invasive imaging), the “time at which skin fluorescence intensity surpasses left and right kidney intensity” value was 13.2 min p.i.
